This is an account of results in patent US20220054510A1, “USE OF 1-ALPHA-HYDROXYVITAMIN D5 AND RELATED COMPOUNDS AS PROPHYLACTIC OR THERAPEUTIC AGENTS FOR SARS-COV-2 (COVID-19 VIRUS) AND RELATED INFECTIONS” (priority 2020, published 2022).

In series [1] the test system is SARS-CoV-2. The format is cell-based. Particulars: Ace2-A549 cells, concentration of 10 micromolar, FIG. 2.
For series [2], the system named is Ace2-A549 cells (human lung epithelial cells). Kind of series: host cell survival in SARS-CoV-2 infected Ace2-A549 cells. Particulars: concentration of 10 micromolar.
Series [3] concerns SARS-CoV-2. Particulars: biorxiv.org/content/10.1101/2020.06.21.162396v1; cited from earlier work.

As for `C=C1/C(=C\C=C2/CCC[C@]3(C)[C@@H]([C@H](C)CC[C@@H](CC)C(C)C)CC[C@@H]23)C[C@@H](O)C[C@@H]1O` [1-alphahydroxyvitamin D5, 1-alpha-hydroxyvitamin D5], the “elimination of SARS-CoV-2 virus infection” value with SARS-CoV-2 [1] is “greater than 99%”. Also, the “killing of host cells” value in series [2] is listed as “without killing the host cells”. In the case of `C=C1/C(=C\C=C2/CCC[C@]3(C)[C@@H]([C@H](C)CCCC(C)(C)O)CC[C@@H]23)C[C@@H](O)C[C@@H]1O` [Calcitriol], the “in vitro activity against this virus” value in the series with SARS-CoV-2 [3] is reported as “in vitro activity against this virus”.
